Measurements as given in ChEMBL document CHEMBL1154173, “L-proline-catalysed facile green protocol for the synthesis and antimycobacterial evaluation of [1,4]-thiazines” (2009).
Converted amounts (≈) assume the structure as drawn.

Test system: Mycobacterium tuberculosis
Test: Antimycobacterial activity against multidrug resistant Mycobacterium tuberculosis by agar dilution method
Format: functional

| SMILES | MIC |
| --- | --- |
| CCOC(=O)C1C(c2ccc(C)cc2)NC(c2ccc(C)cc2)C(C(=O)c2ccc(Cl)cc2)S1(=O)=O (racemic) | 1.48 µM (≈ 0.779 µg/mL) |
| CCOC(=O)C1C(c2ccc(OC)cc2)NC(c2ccc(OC)cc2)C(C(=O)c2ccc(Cl)cc2)S1(=O)=O (racemic) | 1.4 µM (≈ 0.781 µg/mL) |
| CCOC(=O)C1C(c2ccc(Cl)cc2)NC(c2ccc(Cl)cc2)C(C(=O)c2ccc(Cl)cc2)S1(=O)=O (racemic) | 5.52 µM (≈ 3.13 µg/mL) |
| CCOC(=O)C1C(c2ccc([N+](=O)[O-])cc2)NC(c2ccc([N+](=O)[O-])cc2)C(C(=O)c2ccc(Cl)cc2)S1(=O)=O (racemic) | 0.68 µM (≈ 0.4 µg/mL) |
| CC[C@@H](CO)NCCN[C@@H](CC)CO [ETHAMBUTOL] | 61.2 µM (≈ 12.5 µg/mL) |
| NNC(=O)c1ccncc1 [ISONIAZID] | 45.6 µM (≈ 6.25 µg/mL) |
| NC(=O)c1cnccn1 [PYRAZINAMIDE] | 406 µM (≈ 50 µg/mL) |
| CO[C@H]1/C=C/O[C@@]2(C)Oc3c(C)c(O)c4c(O)c(c(/C=N/N5CCN(C)CC5)c(O)c4c3C2=O)NC(=O)/C(C)=C\C=C\[C@H](C)[C@H](O)[C@@H](C)[C@@H](O)[C@@H](C)[C@H](OC(C)=O)[C@@H]1C [RIFAMPIN] | 3.8 µM (≈ 3.13 µg/mL) |
